A short description of series [1]: Dissolution test: solubility of israpafant in buffers, by HPLC. The series is classed as physicochemical. Particulars: 0.1% acetate, phosphate and borate buffers, 25 °C, aqueous buffer, thermodynamic from solid; each buffer (pH 4, 5, 6, 7, 8 and 9); below detection limit by HPLC. How it is done:
Israpafant (manufactured by Yoshitomi Pharmaceutical Industries, Ltd.) was suspended in 0.1% acetate buffer (pH 4, 5, 6), phosphate buffer (pH 6, 7, 8) and borate buffer (pH 8, 9) in a concentration of 0.1% (w/v%, hereinafter the same). Each suspension was filled in a glass ampoule by 5 ml and shaken at 25°C overnight (ca. 15 hours). After passing through a 0.45 µm membrane filter, the solubility of israpafant was measured by HPLC.
(§1) • column: YMC AM-302 (4.6×150 mm) • mobile phase: acetonitrile:0.1M ammonium acetate-87:13 • detection: UV 244 nm • column temperature:35°C • flow rate: 0.7 ml/min • internal standard:1,3,5-triphenylbenzene

A further series concerns rat PAF conjunctivitis. The series is described as follows: Rat PAF conjunctivitis, conjunctival dye-leakage after eye drop. Format: in vivo. Particulars: for inhibition: dye leakage; for amount of dye leakage: instillation 5 µl at 1, 2 hours before PAF, mean±standard error. As for the experimental part:
Male Wistar rats weighing about 130 g purchased from Clea Japan, Inc. were used. They were bred at temperature 23±2°C and humidity 55±15%.
Israpafant was suspended at 0.03, 0.1, 0.3 and 1.0%. Physiological saline was used for the control group.
The formulation of the vehicle for an israpafant eye drop was as shown below, wherein the pH of the eye drop at each concentration was 7.0.
PAF diluted to 4 µg/ml was administered to the upper subconjunctiva of the rat by 25 µl and at the same time, 0.5% Evans' blue (0.5 ml) was intravenously administered. Thirty minutes later, the dye-leakage part of the conjunctiva was excised and the dye was extracted with formamide, after which absorbance (625 nm) was measured. The test drug was administered by instillation (5 µl) to the eye at 1, 2 hours before subconjunctival induction of PAF.

For series [2], the system named is guinea pig active sensitization allergic conjunctivitis. The series can be described thus: Suppressive effect against promotion of conjunctival vascular permeability (early phase reaction), dye-leakage. Format: in vivo. Particulars: 30 minutes after second challenge. How it is done: (§2) Male Hartley guinea pigs weighing about 300 g purchased from Japan SLC. Ltd. were used. These animals had free access to a solid feed (γ ray irradiated feed LRC4, ORIENTAL YEAST CO., LTD.) and tap water, and were bred in a breeding chamber set to a temperature 23 ±2°C and humidity 55±15%.
(§3) Israpafant (manufactured by Yoshitomi Pharmaceutical Industries, Ltd.) was suspended in a vehicle (pH 5) shown below at a concentration of 1% to give an eye drop suspension. In addition, a suspension of israpafant in 0.5% CMC at 10 mg/ml was prepared for oral administration. As a control, physiological saline was used.
Guinea pigs were sensitized with a dispersion of 10 µg ovalbumin (OA) and 30 mg aluminum hydroxide gel by peritoneal administration. At 14 days after the sensitization, a 2.5% OA antigen solution was instilled into the both eyes by 10 µl to induce allergic conjunctivitis (first challenge). At 20 minutes after the last challenge, conjunctivitis signs were observed and the animals were grouped in such a manner that the severity of the condition was equalized from the degrees of chemosis, conjunctival injection and tearing.
The evaluation of a drug included the following steps. At 24 hours from the first challenge, 10 mg/kg Evans' blue was intravenously administered, and a 2.5% OA antigen solution was instilled into the both eyes by 10 µl to again induce conjunctivitis (the second challenge). Thirty minutes later, conjunctival dye-leakage part was excised, the parts of the both eyes were combined and the amount of the leaked dye was measured. The drug was instilled into the both eyes by 10 µl at 3, 2, 1 hour before the second challenge in the case of administration by instillation. In the case of an oral administration, 10 mg/kg was administered once at 1 hour before the second challenge. For suppression of histamine reaction, 1 mg/kg of mepyramine was intravenously administered one minute before.
(§4) • physiological saline (control group) • 1.0% israpafant (instillation group) • 10 mg/kg israpafant p.o. (oral group) • 1 mg/kg mepyramine i.v. (intravenous injection group) • 1.0% israpafant + 1 mg/kg mepyramine i.v. (concurrent instillation group) • 10 mg/kg israpafant p.o.+1 mg/kg mepyramine i.v. (concurrent instillation group)

Series [3] has the same test system. The series can be described thus: Suppressive effect against eosinophil infiltration into conjunctiva (late phase reaction). Format: in vivo. How it is done: as §2, §3
In the same manner as in 1), sensitization and induction by first challenge and second challenge were performed.
The drug was evaluated by removing the eye ball at 6 hours after the second challenge, preparing an optical microscopic specimen according to a conventional method, staining eosinophils by Luna staining, and counting and averaging the number of eosinophils infiltrated into conjunctiva with regard to each of 6 visible areas (one visible area being 0.04 mm^2) of the vicinity of conjunctival lymphoid tissue. The drug was administered in the same manner as in 1).
as §4

For series [4] the test system is unchanged. The series is described as follows: Suppressive effect against immediate allergic conjunctivitis signs (early phase reaction), total score. The series is classed as in vivo. Conditions: 1% israpafant instillation 10 µl one eye at 2, 4, 8 hours after first challenge and 3, 2, 1 hour before second challenge; 20 minutes after second challenge; versus physiological saline control. As for the experimental part:
as §2, §3
In the same manner as in 1), sensitization and induction by the first challenge and the second challenge were performed. […]

A further series in a line: Solubility in water. The series is classed as physicochemical. Conditions: water at 25°C.
A short description of series [5]: Dissolution test: solubility of israpafant in aqueous solutions containing additives, by HPLC. The series is classed as physicochemical. Particulars: for solubility: 0.1% phosphate buffer with dissolved additive, 25 °C, pH 7, aqueous with cosolvent or surfactant or cyclodextrin, thermodynamic from solid. How it is done: In 0.1% phosphate buffer (pH 7) were dissolved the additives shown in Table 2 in a proportion of 0.5% (0.5% and 4% in the sole case of polysorbate). In the same manner as above, israpafant was suspended and dissolved, after which the solubility of israpafant was measured by HPLC.
as §1

Molecules are shown by their SMILES. In brackets after ≈: the same amount, converted by molar mass. Entries after “also recorded” stand apart in the source; their conditions may differ.

Turning to `Cc1nnc2n1-c1sc(CCc3ccc(CC(C)C)cc3)cc1C(c1ccccc1Cl)=NC2C` (stereo not drawn) [israpafant, 4-(2-Chlorophenyl)-2-[2-(4-isobutylphenyl)ethyl]-6,9-dimethyl-6H-thieno[3,2-f][1,2,4]triazolo[4,3-a][1,4]diazepine], the solubility in series [1] is below 0.05 µg/mL; in series [5] (0.5% BAK in 0.1% phosphate buffer (pH 7)), 99 µg/mL (≈ 202 µM); in series [5] (0.5% HCO60 in 0.1% phosphate buffer (pH 7)), 47.3 µg/mL (≈ 96.7 µM); in series [5] (0.5% HPMC in 0.1% phosphate buffer (pH 7)) it was 0.6 µg/mL (≈ 1.23 µM); in series [5] (0.5% PVA(EG40) in 0.1% phosphate buffer (pH 7)), 0.4 µg/mL (≈ 0.818 µM); in series [5] (0.5% SDS in 0.1% phosphate buffer (pH 7)), 1060 µg/mL (≈ 2160 µM). Moreover, the solubility came to 29.5 µg/mL (≈ 60.3 µM) in series [5] (0.5% Tyloxapol in 0.1% phosphate buffer (pH 7)), 66.9 µg/mL (≈ 137 µM) in series [5] (0.5% polysorbate 80 in 0.1% phosphate buffer (pH 7)) and 581 µg/mL (≈ 1190 µM) in series [5] (polysorbate 80 (4% aq. solution) in 0.1% phosphate buffer (pH 7)). Moreover, the inhibition in the series on rat PAF conjunctivitis (eye drop suspension 0.03% (dose 3 µg)) is 19.1%; in the series on rat PAF conjunctivitis (eye drop suspension 0.1% (dose 10 µg)), 29.6%; in the series with rat PAF conjunctivitis (eye drop suspension 0.3% (dose 30 µg)) it was 41.6%; in the series with rat PAF conjunctivitis (eye drop suspension 1.0% (dose 100 µg)), 53.2%. Besides, the “amount of dye leakage” value in the series on rat PAF conjunctivitis (eye drop suspension 0.03% (dose 3 µg), saline 40.03±2.57) is 32.29±3.31 µg/site; in the series on rat PAF conjunctivitis (eye drop suspension 0.1% (dose 10 µg), p<0.01), 28.17±1.42 µg/site; in the series on rat PAF conjunctivitis (eye drop suspension 0.3% (dose 30 µg), p<0.01), 23.37±2.56 µg/site; with rat PAF conjunctivitis (eye drop suspension 1.0% (dose 100 µg), p<0.01), 18.74±2.20 µg/site. Also, the dye-leakage is 10.1 µg/two eye balls in series [2] (10 mg/kg israpafant p.o. + 1 mg/kg mepyramine i.v. (oral concurrent group)); 25.3 µg/two eye balls in series [2] (10 mg/kg israpafant p.o. once 1 hour before second challenge, control 34.5 µg); 24.7 µg/two eye balls in series [2] (1.0% israpafant eye drop suspension, instillation 10 µl both eyes at 3, 2, 1 hour before second challenge, control 34.5 µg); 11.0 µg/two eye balls in series [2] (1.0% israpafant instillation + 1 mg/kg mepyramine i.v. (concurrent instillation group)). Moreover, the “suppressive effect on eosinophil infiltration (in words)” value is “no suppressive effect; also recorded: no effect was found; also recorded: no effect was observed” in series [3] (10 mg/kg israpafant p.o. (oral group), 6 hours after second challenge); “suppressive effect” in series [3] (10 mg/kg israpafant p.o. + 1 mg/kg mepyramine i.v. (concurrent oral administration group), almost the same as mepyramine alone); “suppressive effect” in series [3] (1.0% israpafant instillation + 1 mg/kg mepyramine i.v. (concurrent instillation group), almost the same as mepyramine alone). Besides, the eosinophil infiltration count in series [3] (1.0% israpafant instillation, 6 hours after second challenge, control 95.3) was 71.8 cell/0.04 mm^2. For the same compound, the “total score of conjunctivitis signs” value in series [4] is recorded as “significant decrease”. Moreover, in “Solubility in water”, the solubility in water entry is recorded as “less than 0.01 w/v%”. In addition, the “dissolution (in words)” value is “dissolved extremely well” in series [5] (0.5% aqueous sodium dodecylsulfate solution), “dissolved extremely well” in series [5] (4% aqueous polysorbate solution), “did not dissolve” in series [5] (aqueous solution containing a water soluble polymer or cyclodextrin) and “dissolved well” in series [5] (aqueous surfactant solution).

As to `COc1ccc(CN(CCN(C)C)c2ccccn2)cc1` [mepyramine, reference compound], in series [2] (1 mg/kg mepyramine i.v. one minute before, control 34.5 µg), the dye-leakage was 17.5 µg/two eye balls. Besides, the “suppressive effect on eosinophil infiltration (in words)” value in series [3] (1 mg/kg mepyramine i.v., 6 hours after second challenge) was “suppressive effect”.

The values are drawn from patent EP1004309A1, “ISRAPAFANT-CONTAINING WATER-BASE PREPARATIONS” (Senju Pharmaceutical Co., Ltd., priority 1997, dated 1998).
